According to ChEMBL document CHEMBL5620396, “Phenotypic screening identifies a trisubstituted imidazo[1,2-a]pyridine series that induces differentiation in multiple AML cell lines” (Eur J Med Chem, 2023):
The source made the active and inactive calls. No cut-off for these calls is given here.

Experiments:
ME-1 = test: Induction of morphological changes in human ME-1 cells assessed as variations in nuclear:cytoplasmic ratio at 10 uM; assay type: functional, cell-based
THP-1 = test: Induction of differentiation in human THP-1 cells assessed as reduction in live cell number at 123 nM incubated for 4 days by acridine orange/DAPI staining based analysis; assay type: functional; conditions: time 4.0 day
Kasumi 1 [1] = test: Induction of morphological changes in human Kasumi 1 cells assessed as variations in cell size and shape at 10 uM; assay type: functional, cell-based
OCI-AML-3 [2] = test: Induction of morphological changes in human OCI-AML-3 cells assessed as variations in nuclear:cytoplasmic ratio at 10 uM; assay type: functional, cell-based
[3] = AUC (0 to 8 hrs) in CD-1 mouse at 1 mg/kg, po administered as repeated dose on day 1 and 4; assay type: ADME, organism-based; conditions: in vivo, time 4 day
[4] = Apparent permeability across apical to basolateral side in human Caco-2 cells; assay type: ADME, cell-based
HL-60 = test: Induction of morphological changes in human HL-60 cells assessed as variations in nuclear:cytoplasmic ratio at 10 uM; assay type: functional, cell-based
KG-1 = test: Induction of differentiation in human KG-1 cells assessed as reduction in live cell number at 123 nM incubated for 4 days by acridine orange/DAPI staining based analysis; assay type: functional; conditions: time 4.0 day
[5] = Dose normalized Cmax in CD-1 mouse at 3 mg/kg, po administered as single dose and measured over 24 hrs; assay type: ADME, organism-based; conditions: in vivo
Kasumi 1 [6] = test: Induction of morphological changes in human Kasumi 1 cells assessed as variations in nuclear:cytoplasmic ratio at 10 uM; assay type: functional, cell-based
[7] = Cmax in CD-1 mouse at 3 mg/kg, po administered as single dose and measured over 24 hrs; assay type: ADME, organism-based; conditions: in vivo
[8] = AUC (0 to 8 hrs) in CD-1 mouse at 1 mg/kg, po administered as single dose and measured on day 1; assay type: ADME, organism-based; conditions: in vivo, time 1 day
[9] = Half life in CD-1 mouse at 20 mg/kg, po administered as repeated dose on day 1 and 4; assay type: ADME, organism-based; conditions: in vivo, time 4 day
OCI-AML-3 [10] = test: Induction of morphological changes in human OCI-AML-3 cells assessed as variations in cell size and shape at 10 uM; assay type: functional, cell-based
[11] = Dose normalized AUC (0 to 8 hrs) in CD-1 mouse at 3 mg/kg, po administered as single dose and measured over 24 hrs; assay type: ADME, organism-based; conditions: in vivo
[12] = Half life in CD-1 mouse at 1 mg/kg, po administered as repeated dose on day 1 and 4; assay type: ADME, organism-based; conditions: in vivo, time 4 day

- AUC(0-t) at 96 h [3]: 731 ng·h/mL
- Papp A→B [4]: 16 ×10⁻⁶ cm/s
- Cmax/dose [5]: 120 ng/mL
- Cmax [7]: 360 ng/mL
- AUC(0-t) at 24 h [8]: 845 ng·h/mL
- half-life [9]: 4.1 h
- AUC/dose [11]: 1021 ng·h/mL
- half-life [12]: 2.5 h
SMILES: Cc1cc(F)ccc1-c1cc(NS(C)(=O)=O)c2ncc(-c3ccc4c(cnn4C)c3)n2c1
- Activity (ME-1): Active
- Activity (THP-1): Active
- Activity (Kasumi 1 [1]): Active
- Activity (OCI-AML-3 [2]): Active
- Activity (HL-60): Active
- Activity (KG-1): Active
- Activity (Kasumi 1 [6]): Active
- Activity (OCI-AML-3 [10]): Active
